Where two headings read alike, the source gives them in different places.

These results are taken from US10407445B2, “Hepatitis C virus inhibitors” (ENANTA PHARMACEUTICALS, INC., priority 2013, dated 2019).

Holding throughout (format): cell-based
One test concerns HCV GT 3a replicon. Nature of the test: HCV replicon assay, GT2a chimeric replicon expressing NS5A from GT3a strain S52. The conditions noted are these: Hepatitis C virus, read-out: EC50 (nM) 3a. How it is done:
(§1) The activity of compounds was determined against HCV replicons representing genotypes (GT) 1a, 1b, 2a, and 3a. To generate stable Huh-7.5-based cell lines, HCV replicons were engineered to express the Renilla luciferase reporter (hRluc) fused to the neomycin phosphotransferase (Neo) gene. GT2a and GT3a HCV replicons were based on the JFH-1 subgenomic replicon (Kato et al. 2003 Gastroenterology, 125:1808-1817), in which the NS5A gene was replaced with that of strains J6 and S52 (GT2a and G3a, respectively). The activity of compounds against GT1a replicons encoding NS5A mutations (M28T, Q30R, L31M, Y93C, and Y93H) was also determined in a transient replication assay. The parental GT1a and GT2a replicons (pH/SG-Neo(L+I) and pSG-Neo-JFH1, respectively) were licensed from Apath LLC (Saint Louis, Mo.). The parental GT 1b replicon (pFKi389lucubineo_3_3′_ET) was licensed from ReBLikon GmbH (Germany). HCV replicons were constructed by standard molecular biology techniques described below. All replicon constructs were verified by restriction enzyme digestion and DNA sequencing.
(§2) The plasmid pSG-hRlucNeo-JFH1 was generated from pSG-Neo-JFH1 (Kato et al. 2003, Gastroentrology 125:1808-1817). A fragment containing the JFH-1 5′ NTR—hRluc-Neo gene and two unique restriction sites (AgeI and PmeI) was synthesized (Integrated DNA Technologies, Coralville, Iowa). The resulting synthetic plasmid was digested with AgeI and PmeI and the excised fragment (5′NTR-hRluc-Neo) was ligated into pSG-Neo-JFH1 digested with the same enzymes to generate pSG-hRlucNeo-JFH1. To allow expression of heterologous NS5A sequences, an NS5A shuttle vector was generated from pSG-Neo-JFH1, in which the entire coding sequence of NS5A plus the first eight codons of NS5B were replaced with an AfeI restriction site. This was done by Infusion cloning (Clontech, Mountain View, Calif.) from two PCR products that were generated using pSG-Neo-JFH1 as a template and the following primer pairs:
(§3) Underlined sequences denote regions of overlap necessary for Infusion cloning. Purified PCR products were cloned directly into an NsiI/SnaBI digested pSG-Neo-JFH1 following the manufacturer's instructions to generate pSG-Neo-JFH1-5Ashuttle. The 2023 base pair AgeI/PmeI fragment from pSG-hRlucNeo-JFH1 was then ligated into pSG-Neo-JFH1-5Ashuttle to generate pSG-hRlucNeo-JFH1-5Ashuttle. To generate the 2a-2a-(J6) and 2a-3a-(S52) NS5A chimeric replicons, the full length NS5A sequences from GT2a strain J6 (accession AF177036) and GT3a strain S52 (accession GU814263), with the addition of the first eight codons of JFH-1 NS5B (5′-TCCATGTCATACTCCTGGACCGGG-3′), were synthesized by GeneArt (Life Technologies, Carlsbad Calif.). J6 and S52 NS5A sequences were then PCR amplified from the synthetic clones using the appropriate forward primer:
(§4) Underlined sequences denote regions of overlap with pSG-hRlucNeo-JFH1-5Ashuttle necessary for Infusion cloning. Purified PCR products were directly cloned into AfeI-digested shuttle vector by Infusion cloning following the manufacturer's instructions.
(§5) Stable HCV replicon cell lines were grown in complete media (Dulbecco's modified Eagle medium [DMEM], 2 mM L-glutamine, 0.1 mM essential amino acids, 1 mM sodium pyruvate, 10% heat inactivated fetal bovine serum) with the addition 500 μg/ml […] (G418). Huh7-lunet cells were maintained in the same medium without the addition of G418. Cells were routinely passaged at a dilution of 1:4 two times a week. The assay medium for both luciferase reporter HCV replicon and cytotoxicity assays used phenol red-free DMEM and lacked G418. For each stable replicon assay, a sixteen point half-log dilution series of compound was stamped (0.5 ul compound per well) into three replica 384-well plates, to which cells were added directly (4000 cells/well). […]
On the technique in general: A replicon is a self-replicating genome or part of one, used to study replication in cells.

The subject of test [1] is GT1a replicon encoding NS5A mutation L31V. Nature of the test: Transient replication assay, GT1a replicon with NS5A mutation L31V. The following applies: Hepatitis C virus.
The next test relates to HCV GT 2a-J6 replicon. Put plainly: HCV replicon assay, GT2a chimeric replicon expressing NS5A from GT2a strain J6. The conditions noted are these: Hepatitis C virus, read-out: EC50 (nM) 2a-J6. How it is done:
as §1, §2, §3, §4, §5

The test system of test [2] is GT1a replicon encoding NS5A mutation Y93C. Put plainly: Transient replication assay, GT1a replicon with NS5A mutation Y93C. The following applies: Hepatitis C virus.
In a further test the test system is HCV GT 1a replicon. Nature of the test: HCV replicon assay, stable GT 1a replicon (Renilla luciferase). The following applies: Hepatitis C virus, GT1A. How it is done:
as §1
pH/SG-Neo(L+I) was modified to add the firefly luciferase reporter gene and additional adaptive mutations by replacing the pH/SG-Neo(L+I) NS3-NS5A coding region with the corresponding sequence of pH77-S, creating pH/SG-lucubineo-H77S as described (Borawski J et al. 2009, J Virol 83: 10058-10074). Subsequently, the firefly luciferase-Neo cassette was replaced with the hRluc-Neo cassette. To create a unique cloning site, the NotI restriction site in NS5B was removed using QuickChange II XL Site-Directed Mutagenesis Kit (Agilent) and the following primers: NotI KO Fwd 5′-CTCAAACTCACTCCAATAGCTGCCGCTGGCCGGCTGGAC-3′(G→T mutation removing NotI site underlined) (SEQ. ID No. 1) and NotI KO Rev 5′-GTCCAGCGGGCCAGCGGCAGCTATTGGAGTGAGTTTGAG-3′(C→A mutation removing NotI site underlined) (SEQ. ID No. 2). The resulting vector, pH/SG-lucubineo-H775-NotIKO, was sequenced to confirm the NS5B gene. The hRluc-Neo cassette was PCR amplified from pF9 cytomegalovirus (CMV) hRluc-Neo Flexi(R) (Promega) using Accuprime Super Mix II (Invitrogen) and the following primers, which introduce restriction sites: […]
The amplification product was subcloned into pCR2.1-TOPO (Invitrogen). The resulting plasmid was digested with AscI and NotI, and the excised hRluc-Neo fragment was ligated using the Promega Rapid Ligation Kit (Promega) into pH/SG-lucubineo-H775-NotIKO digested with the same enzymes.
as §5, with “cells/well). For the transient replication assay, Huh7-lunet cells in ice-cold phosphate buffered saline (PBS) were electroporated (BioRad electroporator; 950 uF, 270V) with 10 ug purified in vitro transcribed HCV replicon RNA, followed by resuspension in complete media and plating (8000 cells/well) into compound stamped 384-well plates. Luciferase activity of compound-treated cells was measured relative to DMSO-treated cells after 72 h incubation using RENILLA-GLO™ Luciferase Assay (Promega). Cytotoxicity (CC50) in the GT1b replicon cell line was analyzed using CELL TITER-GLO™ (Promega).” for “cells/well).”

For test [3], the system named is GT1a replicon encoding NS5A mutation Y93H. Put plainly: Transient replication assay, GT1a replicon with NS5A mutation Y93H. The conditions noted are these: Hepatitis C virus.
Test [4] concerns GT1a replicon encoding NS5A mutation Q30R. Nature of the test: Transient replication assay, GT1a replicon with NS5A mutation Q30R. The conditions noted are these: Hepatitis C virus.
Test [5] has as its system GT1a replicon encoding NS5A mutation M28T. Put plainly: Transient replication assay, GT1a replicon with NS5A mutation M28T. The following applies: Hepatitis C virus.
Where [6] appears, read: comparative table, GT 1a, read-out: EC50 (nM) 1a.
Where [7] appears, read: read-out: 1a EC50 (nM) 1a (H77S).

As usually defined, the EC50 is the concentration at which the effect is half-maximal. For the molecule `COC(=O)N[C@H](C(=O)N1C[C@]2(CCCCO2)C[C@H]1c1ncc(-c2ccc(-c3ccc4c(ccc5nc([C@@H]6CCCN6C(=O)[C@@H](NC(=O)OC)C(C)C)[nH]c54)c3)cc2)[nH]1)C(C)C`, the EC50 came to 1 nM in the test with HCV GT 3a replicon; 0.3 nM in test [1] (read-out: EC50 (nM) 1a L31V); 27 nM in the test with HCV GT 2a-J6 replicon; 0.2 nM in test [2] (read-out: EC50 (nM) 1a Y93C); 0.01 nM in the test with HCV GT 1a replicon (setting [6]); 9 nM in test [3] (read-out: EC50 (nM) 1a Y93H). In addition, the EC50 was determined as 0.03 nM in test [4] (read-out: EC50 (nM) 1a Q30R) and 0.01 nM in test [5] (read-out: EC50 (nM) 1a M28T).

Consider `COC(=O)N[C@H](C(=O)N1C[C@@]2(CCCCO2)C[C@H]1c1ncc(-c2ccc(-c3ccc4c(ccc5nc([C@@H]6CCCN6C(=O)[C@@H](NC(=O)OC)C(C)C)[nH]c54)c3)cc2)[nH]1)C(C)C`, for which the EC50 in the test with HCV GT 3a replicon is 156 nM; in test [1] (read-out: EC50 (nM) 1a L31V) it was 44 nM; in the test with HCV GT 2a-J6 replicon, 267 nM; in test [2] (read-out: EC50 (nM) 1a Y93C), 0.7 nM; in the test with HCV GT 1a replicon (setting [6]), 0.15 nM; in test [3] (read-out: EC50 (nM) 1a Y93H), 6 nM. Besides, the EC50 in test [4] (read-out: EC50 (nM) 1a Q30R) stood at 5 nM; in test [5] (read-out: EC50 (nM) 1a M28T) it was 6 nM.

As for `COC(=O)N[C@H](C(=O)N1C[C@]2(CCCO2)C[C@H]1c1ncc(-c2ccc(-c3ccc4c(ccc5nc([C@@H]6CCCN6C(=O)[C@@H](NC(=O)OC)C(C)C)[nH]c54)c3)cc2)[nH]1)C(C)C` [drawing 228], the EC50 amounted to 0.4 nM in test [1] (read-out: 1a EC50 (nM) L31V); 0.2 nM in test [2] (read-out: 1a EC50 (nM) Y93C); 0.02 nM in the test on HCV GT 1a replicon (setting [7]); 15 nM in test [3] (read-out: 1a EC50 (nM) Y93H); 0.05 nM in test [4] (read-out: 1a EC50 (nM) Q30R); 0.3 nM in test [5] (read-out: 1a EC50 (nM) M28T).

On to `COC(=O)N[C@H](C(=O)N1C[C@]2(CCOC2)C[C@H]1c1ncc(-c2ccc(-c3ccc4c(ccc5nc([C@@H]6CCCN6C(=O)[C@@H](NC(=O)OC)C(C)C)[nH]c54)c3)cc2)[nH]1)C(C)C` [drawing 229], for which the concentration for a half-maximal effect (EC50) is 11 nM in test [1] (read-out: 1a EC50 (nM) L31V); 0.8 nM in test [2] (read-out: 1a EC50 (nM) Y93C); 0.02 nM in the test on HCV GT 1a replicon (setting [7]); 42 nM in test [3] (read-out: 1a EC50 (nM) Y93H); 0.8 nM in test [4] (read-out: 1a EC50 (nM) Q30R); 3 nM in test [5] (read-out: 1a EC50 (nM) M28T).

As to `COC(=O)N[C@H](C(=O)N1C[C@@]2(CCOC2)C[C@H]1c1ncc(-c2ccc(-c3ccc4c(ccc5nc([C@@H]6CCCN6C(=O)[C@@H](NC(=O)OC)C(C)C)[nH]c54)c3)cc2)[nH]1)C(C)C` [drawing 230], the EC50 in test [1] (read-out: 1a EC50 (nM) L31V) came out at 1 nM; in test [2] (read-out: 1a EC50 (nM) Y93C) it was 0.4 nM; in the test with HCV GT 1a replicon (setting [7]), 0.01 nM; in test [3] (read-out: 1a EC50 (nM) Y93H), 7 nM; in test [4] (read-out: 1a EC50 (nM) Q30R) it was 0.4 nM; in test [5] (read-out: 1a EC50 (nM) M28T), 0.5 nM.

With `COC(=O)N[C@H](C(=O)N1C[C@@]2(CCCO2)C[C@H]1c1ncc(-c2ccc(-c3ccc4c(ccc5nc([C@@H]6CCCN6C(=O)[C@@H](NC(=O)OC)C(C)C)[nH]c54)c3)cc2)[nH]1)C(C)C` [drawing 231], the EC50 was 46 nM in test [1] (read-out: 1a EC50 (nM) L31V); 0.2 nM in test [2] (read-out: 1a EC50 (nM) Y93C); 0.06 nM with HCV GT 1a replicon (setting [7]); 5 nM in test [3] (read-out: 1a EC50 (nM) Y93H); 3 nM in test [4] (read-out: 1a EC50 (nM) Q30R); 14 nM in test [5] (read-out: 1a EC50 (nM) M28T).

For the molecule `COC(=O)N[C@H](C(=O)N1CC2(CCOCC2)C[C@H]1c1ncc(-c2ccc(-c3ccc4c(ccc5nc([C@@H]6CCCN6C(=O)[C@@H](NC(=O)OC)C(C)C)[nH]c54)c3)cc2)[nH]1)C(C)C` [drawing 234], the EC50 with HCV GT 3a replicon was 0.7 nM; in test [1] (read-out: EC50 (nM) 1a L31V), 6 nM; in the test with HCV GT 2a-J6 replicon, 32 nM; in test [2] (read-out: EC50 (nM) 1a Y93C), 1 nM; in the test on HCV GT 1a replicon (setting [6]), 0.03 nM; in test [3] (read-out: EC50 (nM) 1a Y93H), 26 nM. Besides, the EC50 in test [4] (read-out: EC50 (nM) 1a Q30R) was 1 nM; in test [5] (read-out: EC50 (nM) 1a M28T) it was 0.9 nM.

In the case of `COC(=O)N[C@H](C(=O)N1C[C@@]2(CCCOC2)C[C@H]1c1ncc(-c2ccc(-c3ccc4c(ccc5nc([C@@H]6CCCN6C(=O)[C@@H](NC(=O)OC)C(C)C)[nH]c54)c3)cc2)[nH]1)C(C)C` [drawing 235], the 50% effective concentration (EC50) with HCV GT 3a replicon stood at 297 nM; in test [1] (read-out: EC50 (nM) 1a L31V), 0.1 nM; with HCV GT 2a-J6 replicon, 50 nM; in test [2] (read-out: EC50 (nM) 1a Y93C), 0.02 nM; in the test with HCV GT 1a replicon (setting [6]), 0.01 nM; in test [3] (read-out: EC50 (nM) 1a Y93H), 1 nM. The EC50 in test [4] (read-out: EC50 (nM) 1a Q30R) was found to be 0.06 nM; in test [5] (read-out: EC50 (nM) 1a M28T), 0.03 nM.
